Like-named read-outs stand apart in the source and are kept apart here.

The record followed here is patent publication US20240269139A1, “COMPOUNDS FOR TARGETED PROTEIN DEGRADATION OF KINASES” (DANA-FARBER CANCER INSTITUTE, INC., priority 2020, published 2024).

What all share (assay type): cell-based
Test [1] addresses protein kinases (human kinome) (Homo sapiens, UniProt P54819). Conditions: AK2 (P54819).
Test [2] addresses protein kinases (human kinome) (Homo sapiens, UniProt Q9BVS4). Conditions: RIOK2 Q9BVS4.
The target in test [3] is T1, protein kinases (human kinome) (Homo sapiens, UniProt O95835).
T1 sequence (O95835 1-1130): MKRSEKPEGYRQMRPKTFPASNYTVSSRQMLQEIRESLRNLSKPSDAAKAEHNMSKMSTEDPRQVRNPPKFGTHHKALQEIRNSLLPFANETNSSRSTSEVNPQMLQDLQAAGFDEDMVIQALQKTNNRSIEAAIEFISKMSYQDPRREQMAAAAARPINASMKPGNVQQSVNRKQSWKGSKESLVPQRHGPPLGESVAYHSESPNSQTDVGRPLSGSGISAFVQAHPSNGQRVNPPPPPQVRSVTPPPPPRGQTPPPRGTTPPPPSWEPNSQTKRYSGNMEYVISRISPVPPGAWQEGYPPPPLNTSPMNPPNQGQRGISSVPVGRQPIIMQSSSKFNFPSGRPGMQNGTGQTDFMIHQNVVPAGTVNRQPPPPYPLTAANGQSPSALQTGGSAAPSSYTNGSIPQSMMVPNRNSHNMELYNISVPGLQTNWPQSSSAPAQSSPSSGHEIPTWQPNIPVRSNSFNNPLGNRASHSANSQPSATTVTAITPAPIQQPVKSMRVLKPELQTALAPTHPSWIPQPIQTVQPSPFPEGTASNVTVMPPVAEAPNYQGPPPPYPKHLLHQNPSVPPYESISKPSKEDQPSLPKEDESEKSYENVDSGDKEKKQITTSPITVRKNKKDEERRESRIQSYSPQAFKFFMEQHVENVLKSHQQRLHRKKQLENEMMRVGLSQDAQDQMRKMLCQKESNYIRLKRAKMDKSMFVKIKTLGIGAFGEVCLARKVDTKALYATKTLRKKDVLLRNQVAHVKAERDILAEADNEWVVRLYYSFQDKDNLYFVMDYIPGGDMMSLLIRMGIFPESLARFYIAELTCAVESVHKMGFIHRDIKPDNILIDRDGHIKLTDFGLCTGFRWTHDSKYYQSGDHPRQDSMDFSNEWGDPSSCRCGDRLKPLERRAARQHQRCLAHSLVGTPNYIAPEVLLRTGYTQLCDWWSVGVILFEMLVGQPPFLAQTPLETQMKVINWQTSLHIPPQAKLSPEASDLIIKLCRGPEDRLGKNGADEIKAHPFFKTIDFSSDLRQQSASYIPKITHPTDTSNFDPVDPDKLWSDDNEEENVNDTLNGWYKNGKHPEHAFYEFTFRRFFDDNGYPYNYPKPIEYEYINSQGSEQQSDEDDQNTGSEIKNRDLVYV
Conditions: LATS1 O95835.

For test [4], the target named is protein kinases (human kinome) (Homo sapiens, UniProt Q15131).
Test [5] concerns the target protein kinases (human kinome) (Homo sapiens, UniProt Q92918).
Test [6] deals with T2, protein kinases (human kinome) (Homo sapiens, UniProt Q9H8X2).
T2 sequence (Q9H8X2 1-491): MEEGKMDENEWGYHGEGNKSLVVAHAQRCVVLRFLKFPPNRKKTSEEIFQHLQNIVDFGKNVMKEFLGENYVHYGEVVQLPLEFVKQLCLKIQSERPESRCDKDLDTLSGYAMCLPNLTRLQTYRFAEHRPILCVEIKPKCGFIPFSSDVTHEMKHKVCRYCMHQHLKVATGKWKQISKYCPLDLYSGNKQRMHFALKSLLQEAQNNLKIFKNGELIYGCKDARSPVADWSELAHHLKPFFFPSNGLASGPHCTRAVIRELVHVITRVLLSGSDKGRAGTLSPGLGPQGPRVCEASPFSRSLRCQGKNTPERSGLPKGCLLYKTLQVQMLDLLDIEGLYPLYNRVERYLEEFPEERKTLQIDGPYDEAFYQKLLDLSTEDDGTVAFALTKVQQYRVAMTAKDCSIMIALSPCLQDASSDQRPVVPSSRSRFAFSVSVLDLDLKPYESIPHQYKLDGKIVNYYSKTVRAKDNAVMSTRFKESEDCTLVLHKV
Conditions: IPPK (Q9H8X2).

protein kinases (human kinome) (Homo sapiens, UniProt Q9BVS4), sequence (Q9BVS4 whole entry): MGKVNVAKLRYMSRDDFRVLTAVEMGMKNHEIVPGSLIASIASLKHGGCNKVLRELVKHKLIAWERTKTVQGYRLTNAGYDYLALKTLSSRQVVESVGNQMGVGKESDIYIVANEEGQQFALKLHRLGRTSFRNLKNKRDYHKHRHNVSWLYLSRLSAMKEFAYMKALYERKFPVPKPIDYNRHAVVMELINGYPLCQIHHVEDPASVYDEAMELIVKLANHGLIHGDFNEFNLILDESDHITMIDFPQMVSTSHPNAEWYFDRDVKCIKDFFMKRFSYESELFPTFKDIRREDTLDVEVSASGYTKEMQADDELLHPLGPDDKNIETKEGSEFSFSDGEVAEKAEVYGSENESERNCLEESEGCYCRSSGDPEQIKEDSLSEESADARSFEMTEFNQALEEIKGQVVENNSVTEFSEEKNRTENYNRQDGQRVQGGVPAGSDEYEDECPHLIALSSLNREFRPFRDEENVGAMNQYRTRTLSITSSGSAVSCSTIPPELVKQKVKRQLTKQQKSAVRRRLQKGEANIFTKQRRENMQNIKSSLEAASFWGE
protein kinases (human kinome) (Homo sapiens, UniProt Q92918), sequence (Q92918 whole entry): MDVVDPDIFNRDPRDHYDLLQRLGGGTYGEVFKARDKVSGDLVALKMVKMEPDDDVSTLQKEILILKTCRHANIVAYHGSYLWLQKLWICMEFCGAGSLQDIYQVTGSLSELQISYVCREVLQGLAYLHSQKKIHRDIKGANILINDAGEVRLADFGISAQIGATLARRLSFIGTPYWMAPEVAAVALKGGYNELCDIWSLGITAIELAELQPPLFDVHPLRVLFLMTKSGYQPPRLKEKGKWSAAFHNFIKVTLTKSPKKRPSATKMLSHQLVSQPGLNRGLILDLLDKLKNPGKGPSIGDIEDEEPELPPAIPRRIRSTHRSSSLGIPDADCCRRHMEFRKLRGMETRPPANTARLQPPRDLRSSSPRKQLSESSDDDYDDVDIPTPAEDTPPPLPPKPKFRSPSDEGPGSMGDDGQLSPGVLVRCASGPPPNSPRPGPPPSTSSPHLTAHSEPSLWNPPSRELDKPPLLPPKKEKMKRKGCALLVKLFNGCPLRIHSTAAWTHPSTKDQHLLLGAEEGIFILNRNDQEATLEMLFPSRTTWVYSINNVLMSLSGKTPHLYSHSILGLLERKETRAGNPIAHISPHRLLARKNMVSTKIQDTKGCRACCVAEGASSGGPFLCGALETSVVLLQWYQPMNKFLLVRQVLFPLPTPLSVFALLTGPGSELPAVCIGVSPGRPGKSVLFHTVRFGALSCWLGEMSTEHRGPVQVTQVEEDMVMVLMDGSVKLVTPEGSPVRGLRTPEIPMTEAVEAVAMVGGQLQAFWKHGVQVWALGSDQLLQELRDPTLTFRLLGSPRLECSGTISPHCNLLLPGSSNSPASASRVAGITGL
protein kinases (human kinome) (Homo sapiens, UniProt Q15131), sequence (Q15131 whole entry): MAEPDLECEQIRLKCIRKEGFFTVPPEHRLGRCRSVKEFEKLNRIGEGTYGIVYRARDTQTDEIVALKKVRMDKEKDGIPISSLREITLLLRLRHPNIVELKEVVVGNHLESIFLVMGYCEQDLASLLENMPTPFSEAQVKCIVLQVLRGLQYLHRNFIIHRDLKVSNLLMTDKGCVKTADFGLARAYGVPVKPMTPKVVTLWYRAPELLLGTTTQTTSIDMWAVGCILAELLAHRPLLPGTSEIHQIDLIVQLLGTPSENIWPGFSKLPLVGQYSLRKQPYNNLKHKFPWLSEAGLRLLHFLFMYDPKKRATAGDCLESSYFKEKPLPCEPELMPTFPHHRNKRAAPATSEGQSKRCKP

For the compound `Cc1ccc(C(=O)Nc2ccc(CN3CCN(CCCOCCOCCOCCNC(=O)COc4cccc5c4C(=O)N(C4CCC(=O)NC4=O)C5=O)CC3)c(C(F)(F)F)c2)cc1C#Cc1cnc2cccnn12` (centres unmarked) [SB1.G.187], the logFC in test [1] (experiment wp056) was −0.3691.

`CN(C)C(=O)c1cc2cnc(Nc3ccc(N4CCN(CCCCNC(=O)COc5cccc6c5C(=O)N(C5CCC(=O)NC5=O)C6=O)CC4)cn3)nc2n1C1CCCC1` (centres unmarked) [BSJ.04.132] had a logFC in test [1] (experiment wp084) of −0.3323.

The compound `CC(=O)c1c(C)c2cnc(Nc3ccc(N4CCN(CCOCCOCCOCCNC(=O)COc5cccc6c5C(=O)N(C5CCC(=O)NC5=O)C6=O)CC4)cn3)nc2n(C2CCCC2)c1=O` (centres unmarked) [BSJ.03.123] registered a logFC in test [1] (experiment wp084) of −0.395.

`CC(C)S(=O)(=O)c1ccccc1Nc1nc(Nc2ccc(N3CCN(CCOCCNC(=O)CNc4cccc5c4C(=O)N(C4CCC(=O)NC4=O)C5=O)CC3)cc2)ncc1Cl` (centres unmarked) [SK.3.91]: the logFC in test [2] (experiment wp016, 1 uM) is given as −0.6319; in test [2] (experiment wp103), −0.8311; in test [2] (experiment wp105), −0.482; in test [2] (experiment wp107), −0.7393; in test [2] (experiment wp133, 4 hr) it was −0.6476; in test [2] (experiment wp160, 4 hr), −0.4416. Also, the logFC is reported as −0.3335 in test [3] (experiment wp105); −0.4609 in test [3] (experiment wp107); −0.3463 in test [3] (experiment wp160, 4 hr); −0.544 in test [4] (CDK10 (Q15131-1), experiment wp133, 4 hr); −0.4729 in test [6] (experiment wp103); −1.001 in test [6] (experiment wp107). Also, the logFC is −0.7881 in test [6] (experiment wp114) and −0.4816 in test [6] (experiment wp133, 4 hr). For the same compound, the “logFC RIOK2” value in test [2] (experiment wp016, 1 uM) is −0.6319; in test [2] (experiment wp103), −0.8311; in test [2] (experiment wp105), −0.482; in test [2] (experiment wp107) it was −0.7393; in test [2] (experiment wp133, 4 hr), −0.6476; in test [2] (experiment wp160, 4 hr), −0.4416. For the same compound, the “logFC LATS1” value in test [3] (experiment wp105) was −0.3335; in test [3] (experiment wp107), −0.4609; in test [3] (experiment wp160, 4 hr), −0.3463. Also, the “logFC of CDK10 (Q15131-1)” value in test [4] (experiment wp133, 4 hr) was −0.544. In addition, the “logFC MAP4K1 (Q92918)” value in test [5] (experiment wp016, 1 uM) is −0.6677; in test [5] (experiment wp103), −0.5099; in test [5] (experiment wp107) it was −0.7036; in test [5] (experiment wp133, 4 hr), −0.5528; in test [5] (experiment wp160, 4 hr) it was −0.4817.
